The record followed here is patent publication US20220160718A1, “COMPOSITIONS AND METHODS OF TREATING CANCER” (Bristol-Myers Squibb Company, priority 2018, published 2022).

Data set [1] relates to Mouse colon tumor MC38 cells. The experiment in a line: Mouse colon tumor (MC38) model, anti-tumor efficacy. The class given is in vivo. The protocol: Female C57BL/6 mice from Charles River Laboratories (Raleigh, N.C.) were received in house at age 6-8 weeks and acclimated for 3-7 days prior to implant. Mouse colon tumor MC38 cells were implanted subcutaneously at a concentration of 1×10^7 cells/mL, 0.1 mL per injection, using a 1 mL tuberculin syringe with 25 g needle.
On Day 6 post implant, mice were randomized and sorted into groups with 10 mice per group. […] Antibody B was administered i.p. every 4 days for a total of 3 doses.
(§1) Tumors and group body weights were weighed and measured twice weekly until tumors reached a volume of approximately 1500 mm^3. Animals were euthanized if the tumor reached a volume greater than approximately 1500 mm^3 or appeared ulcerated. Mean, median and/or survival plots as well as number of tumor-free mice were calculated to determine efficacy.

The test system of data set [2] is Mouse colon tumor CT26 cells. The experiment in a line: Mouse colon tumor (CT26) model, anti-tumor efficacy. The format is in vivo. The protocol:
Female BALB/C mice from ENVIGO (Frederick, Md.) were received in house at age 6-8 weeks and acclimated for 3-7 days prior to implantation. Mouse colon tumor CT26 cells were implanted subcutaneously at a concentration of 1×10^7 cells/mL, 0.1 mL per injection, using a 1 mL tuberculin syringe with 25 g needle.
On Day 10 post implant, mice were randomized and sorted into groups with 10 mice per group. […] Antibody B was administered i.p. every 4 days for a total of 3 doses.
as §1

In data set [3] the target is T1, mouse CCR2 (Mus musculus, UniProt P51683).
T1 construct: WEHI-274.1 mouse monocyte line; endogenous in cells; host or cells: WEHI-274.1 mouse monocyte line
T1 sequence (P51683 whole entry): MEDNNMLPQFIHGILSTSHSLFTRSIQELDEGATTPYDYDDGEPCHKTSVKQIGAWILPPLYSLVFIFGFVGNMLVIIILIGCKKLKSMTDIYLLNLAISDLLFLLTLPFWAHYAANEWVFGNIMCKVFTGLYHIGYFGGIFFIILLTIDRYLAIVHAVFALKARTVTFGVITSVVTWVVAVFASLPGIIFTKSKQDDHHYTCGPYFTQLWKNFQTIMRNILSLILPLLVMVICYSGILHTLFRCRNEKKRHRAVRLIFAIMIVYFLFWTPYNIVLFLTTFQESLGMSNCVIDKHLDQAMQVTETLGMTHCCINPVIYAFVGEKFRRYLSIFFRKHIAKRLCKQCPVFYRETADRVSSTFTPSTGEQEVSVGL
Put plainly: Mouse CCR2 potency (assay not specified).

The target of data set [4] is T2, human CCR2 (Homo sapiens, UniProt P41597). Put plainly: Human CCR2-mediated calcium flux in THP-1 cells. The format is cell-based. Further details: established with the human monocytic cell line, THP-1; endogenous in cells; host or cells: THP-1 human monocytic cell line. The conditions noted are these: human pharmacology, human MCP-1 10 nM, read-out: CCR2 Potency, ligand-induced calcium flux in cells. The protocol: (§2) All samples were tested in duplicate.
T2 sequence (P41597 whole entry): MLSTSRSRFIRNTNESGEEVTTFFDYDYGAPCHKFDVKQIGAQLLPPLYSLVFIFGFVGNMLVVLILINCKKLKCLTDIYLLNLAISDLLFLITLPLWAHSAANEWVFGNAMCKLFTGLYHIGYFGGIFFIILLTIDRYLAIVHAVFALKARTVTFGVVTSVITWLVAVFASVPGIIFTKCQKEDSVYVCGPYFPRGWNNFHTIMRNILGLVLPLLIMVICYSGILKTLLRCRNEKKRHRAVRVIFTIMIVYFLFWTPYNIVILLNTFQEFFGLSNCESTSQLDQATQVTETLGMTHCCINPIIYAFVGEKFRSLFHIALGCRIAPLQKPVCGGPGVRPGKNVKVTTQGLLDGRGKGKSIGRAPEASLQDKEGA
For orientation: Calcium flux is commonly read through the fluorescence of an indicator in the cells.

Data set [5] addresses T3, human CCR5 (Homo sapiens, UniProt P51681). The experiment in a line: Human CCR5-mediated CD11b integrin upregulation in whole blood. The conditions noted are these: human pharmacology, MIP-1beta 50 nM, read-out: CCR5 Potency, ligand-induced integrin upregulation in whole blood. Further details: established with human whole blood; from tissue; host or cells: human whole blood. The class given is cell-based.

Data set [6] concerns the target T2, human CCR2. The experiment in a line: Human CCR2-mediated CD11b integrin upregulation in whole blood. The class given is cell-based. The conditions noted are these: human pharmacology, MCP-1 10 nM, read-out: CCR2 Potency, ligand-induced integrin upregulation in whole blood. As for the experimental part: A CCR2-dependent CD11b upregulation assay was established with human whole blood. […] The reactions were incubated for 30 minutes at 37° C. […] The samples were then incubated for 30 minutes on ice in the dark. […] Data acquisition and analysis were performed using CellQuestPro™ software. A sequential gating strategy was used to analyze the CD14high CD11b+ monocyte population. […] A similar procedure for mouse CCR5 was adopted except that MIP-1beta (50 nM) was used as the ligand.

The target of data set [7] is T3, human CCR5. The experiment in a line: Human CCR5-mediated calcium flux in HT1080/CCR5 cells. The conditions noted are these: human pharmacology, MIP-1beta 50 nM, read-out: CCR5 Potency, ligand-induced calcium flux in cells. The class given is cell-based. The protocol: as §2
A short description of data set [8]: Mouse PK of Compound C. The class given is in vivo.
Data set [9] deals with T3, human CCR5. The experiment in a line: Inhibition of 125I-MIP-1beta binding to human T cells (human CCR5). Further details: hPBMCs and human T cells were isolated from human leukopak; endogenous in cells; host or cells: human T cells isolated from human leukopak. The conditions noted are these: human pharmacology, 125I-human MIP-1beta, read-out: CCR5 Potency, binding on CCR5-expressing cells (displacing 125I-labelled ligand). The protocol: All conditions were tested in duplicate.

Data set [10] is described as follows: Tolerability in CT26 tumor-bearing mice. The conditions noted are these: CT26 model; alone or in combination. The format is in vivo. The protocol: as §1
Data set [11] deals with T4, mouse PD-1 (Mus musculus, UniProt Q02242).
T4 construct: expressed in transfected cells; host or cells: CHO cells
T4 sequence (Q02242 25-288): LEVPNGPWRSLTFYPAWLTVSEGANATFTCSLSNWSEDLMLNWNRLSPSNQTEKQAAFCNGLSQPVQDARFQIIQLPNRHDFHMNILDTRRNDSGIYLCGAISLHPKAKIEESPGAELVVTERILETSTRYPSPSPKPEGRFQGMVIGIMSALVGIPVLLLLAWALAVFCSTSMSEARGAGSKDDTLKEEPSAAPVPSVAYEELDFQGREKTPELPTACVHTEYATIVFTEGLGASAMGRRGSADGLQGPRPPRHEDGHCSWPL
The experiment in a line: Blocking binding of PD-L2 to mouse PD-1 on CHO transfectants. The conditions noted are these: mouse potency; mouse PD-L2, CHO mouse PD-1; read-out: Blocking PD-L2 binding to PD1-expressing cells for IC50. The protocol:
CHO transfectants stably expressing human and mouse PD-1 were pre-incubated with titrated mAbs against human and mouse PD-1, respectively, followed by addition of PD-L2-Fc at 15 μg/ml. Cell-bound PD-L2-Fc was detected with a FITC-conjugated secondary to human IgG Fc.

Data set [12] concerns the target T4, mouse PD-1. Put plainly: Blocking binding of PD-L1 to mouse PD-1 on CHO transfectants. The conditions noted are these: mouse potency; mouse PD-L1, CHO mouse PD-1; read-out: Blocking PD-L1 binding to PD1-expressing cells for IC50. The protocol:
CHO transfectants stably expressing human and mouse PD-1 were pre-incubated with titrated mAbs against human and mouse PD-1, respectively, followed by addition of PD-L1-Fc at 2 μg/mL. Cell-bound PD-L1-Fc was detected with a FITC-conjugated secondary to human IgG Fcγ.

A short description of data set [13]: Tolerability in MC38 tumor-bearing mice. The format is in vivo. The conditions noted are these: MC38 model; alone or in combination. As for the experimental part:
as §1

Data set [14] addresses T4, mouse PD-1. The experiment in a line: Direct binding of anti-PD-1 mAb to mouse PD-1 on CHO transfectants. The conditions noted are these: mouse potency; mouse PD1-expressing CHO cells. As for the experimental part: Assays for Direct Binding of Anti-PD-1 Monoclonal Antibody (mAb) to PD1 Stably Expressed on CHO Transfectants
mAbs against human and mouse PD-1 were serially diluted and incubated with CHO cell transfectants stably expressing human and mouse PD-1, respectively, followed by detection with a FITC-conjugated secondary to mouse IgG Fcγ.

T3 sequence (P51681 whole entry): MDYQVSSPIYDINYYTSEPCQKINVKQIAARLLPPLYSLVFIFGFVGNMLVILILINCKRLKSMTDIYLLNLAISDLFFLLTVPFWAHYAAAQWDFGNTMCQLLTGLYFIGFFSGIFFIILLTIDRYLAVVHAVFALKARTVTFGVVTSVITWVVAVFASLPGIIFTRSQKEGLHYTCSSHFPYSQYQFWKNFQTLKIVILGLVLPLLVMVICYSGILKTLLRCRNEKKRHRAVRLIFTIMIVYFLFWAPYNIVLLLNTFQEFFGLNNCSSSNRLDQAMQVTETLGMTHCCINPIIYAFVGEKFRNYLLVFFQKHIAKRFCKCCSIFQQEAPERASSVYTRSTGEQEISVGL

Consider `CCC[C@@H]1C[C@H](N(C)C(C)C)CC[C@@H]1N1CC[C@H](Nc2ncnc3ccc(C(F)(F)F)cc23)C1=O` [Compound A, (S)-1-((1S,2R,4R)-4-(isopropyl(methyl)amino)-2-propylcyclohexyl)-3-((6-(trifluoromethyl)quinazolin-4-yl)amino)pyrrolidin-2-one], for which the Tumor-free mice in data set [1] (MC38 Study #1, Compound A 25 mg/kg PO BID 28 days alone) was 0/10; in [1] (MC38 Study #1, Compound A 50 mg/kg PO BID 28 days alone), 0/10; in data set [1] (MC38 Study #1, Compound A 100 mg/kg PO BID 28 days alone) it was 0/10; in data set [1] (MC38 Study #2, Compound A 6.25 mg/kg PO BID 28 days alone), 0/10; in [1] (MC38 Study #2, Compound A 50 mg/kg PO BID 28 days alone), 0/10; in data set [2] (Compound A 12.5 mg/kg PO BID 28 days alone), 0/10. Moreover, the Tumor-free mice in data set [2] (Compound A 25 mg/kg PO BID 28 days alone) and in data set [2] (Compound A 50 mg/kg PO BID 28 days alone) was 0/10 in each case.
As to `CC(=O)N[C@@H]1C[C@H](NC(C)(C)C)CC[C@@H]1N1CC[C@H](Nc2ncnc3cc(C(C)(C)C)nn23)C1=O` [Compound C, N-((1R,2S,5R)-5-(tert-butylamino)-2-((S)-3-(7-tert-butylpyrazolo[1,5-a][1,3,5]triazin-4-ylamino)-2-oxopyrrolidin-1-yl)cyclohexyl)acetamide], the “mouse CCR2 potency” value in data set [3] was “poor”. Also, the IC50 in data set [4] is 2.9 nM; in data set [5], 5.7 nM; in data set [6], 4.8 nM; in data set [7], 2 nM; in [9] it was 3.6 nM. Moreover, in data set [8], the “mouse PK” value is listed as “poor”.

B1: Antibody B: anti-mouse PD-1 antibody generated by murinizing the Fc tail of 4H2; contains a mouse IgG1 D265A; SEQ ID NO: 1 and 2 (protein)
light: DTVLTQSPALAVSLGQRVTISCKASETVSSSMYSYIHWYQQKPGQQPKLLIYRASNLESGVPARFSGSGSGTDFTLTIDPVEADDVATYFCQQSWNPWTFGGGTKLELKRADAAPTVSIFPPSSEQLTSGGASVVCFLNNFYPKDINVKWKIDGSERQNGVLNSWTDQDSKDSTYSMSSTLTLTKDEYERHNSYTCEATHKTSTSPIVKSFNRNEC
heavy: QVQLKESGPGLVQPSQTLSLTCTVSGFSLTSYNVHWVRQPPGKGLEWMGGMRYNEDTSYNSALKSRLSISRDTSKNQVFLKMNSLQTDDTGTYYCTRDAVYGGYGGWFAYWGQGTLVTVSSAKTTPPSVYPLAPGSAAQTNSMVTLGCLVKGYFPEPVTVTWNSGSLSSGVHTFPAVLQSDLYTLSSSVTVPSSTWPSETVTCNVAHPASSTKVDKKIVPRDCGCKPCICTVPEVSSVFIFPPKPKDVLTITLTPKVTCVVVDISKDDPEVQFSWFVDDVEVHTAQTQPREEQFNSTFRSVSELPIMHQDWLNGKEFKCRVNSAAFPAPIEKTISKTKGRPKAPQVYTIPPPKEQMAKDKVSLTCMITDFFPEDITVEWQWNGQPAENYKNTQPIMDTDGSYFVYSKLNVQKSNWEAGNTFTCSVLHEGLHNHHTEKSLSHSPGK
modifications: Antibody B Light chain variable; Antibody B heavy chain variable
As a reminder, the EC50 is the concentration giving half of the maximal effect. The low end stands for an effect from little substance, the high end for a need for much substance. For the molecule B1, the tolerability result in [10] and in data set [13] was “well tolerated” throughout. The IC50 is 4.9 nM in data set [11] and 3.6 nM in data set [12]. For the same molecule, the Tumor-free mice in data set [1] (MC38 Study #1, Antibody B 10 mg/kg i.p., 3 doses, alone) is 1/10; in data set [1] (MC38 Study #2, Antibody B 10 mg/kg, 3 doses, alone), 0/10; in data set [2] (Antibody B 10 mg/kg, 3 doses, alone) it was 0/10. In data set [14], this molecule showed an EC50 of 2.9 nM.
